# From ChEMBL document CHEMBL1141323, “Iriomoteolides-1b and -1c, 20-membered macrolides from a marine dinoflagellate Amphidinium species” (J Nat Prod, 2007)
# Experiments:
# [1] = Cytotoxicity against human DG75 cells; format: cell-based; conditions: DG-75
# Raji (Homo sapiens) = test: Cytotoxicity against EBV-infected Raji cells; conditions: human gammaherpesvirus 4, Raji
Compound,IC50 [1],IC50 (Raji (Homo sapiens))
C=C1C[C@@H]2C/C=C/[C@H](O)[C@H](C)/C(C)=C\C(=O)O[C@H](C[C@H](C)[C@H](C)O)[C@@H](C)C/C=C/[C@@](C)(O)[C@](O)(C1)O2,2 ng/mL,4 ng/mL
C/C1=C/C(=O)[C@](C)(O)/C=C/C[C@H](C)[C@@H](C[C@H](C)[C@H](C)O)OC(=O)/C=C(/C)[C@@H](C)[C@@H](O)/C=C/C[C@H](O)C1,900 ng/mL,–
C=C1C[C@@H]2C/C=C/[C@H](O)[C@H](C)/C(C)=C\C(=O)O[C@H](CCC(C)C(C)O)[C@@H](C)C/C=C/[C@@](C)(O)[C@](O)(C1)O2 (stereo not given in full),2 ng/mL,4 ng/mL
